# Tested on: SD rats
# Experiment: 2-week repeated oral dose toxicity study
# Format: in vivo
# Details: for Abnormal gross findings of necropsy (changed animals / total) / Basophils / Body Weight (at necropsy) / Brain weight / CH / CHCM / Eosinophils / HDW / Heart weight / Hematocrit / Hemoglobin / LUC / Left adrenal weight / Left kidney weight / Left testis weight / Liver weight / Lung weight / Lympocytes / MCH / MCHC / MCV / MPV / Monocytes / Mortality (dead animals / total number of animals) / Neutrophils / Platelet / RBC / RDW / Rate body weight / brain / Rate body weight / heart / Rate body weight / left adrenal / Rate body weight / left kidney / Rate body weight / left testis / Rate body weight / liver / Rate body weight / lung / Rate body weight / right adrenal / Rate body weight / right kidney / Rate body weight / right testis / Rate body weight / spleen / Rate body weight / thymus / Retic / Right adrenal weight / Right kidney weight / Right testis weight / Spleen weight / Symptomatic signs / Thymus weight / WBC: 2 weeks
# Procedure: KMS88009 was orally administered once a day by gavage for 14 consecutive days at dose level of 0 (vehicle), 100, 300 and 1,000 mg/kg (n = 5 per group). […] Organs were collected at necropsy; adrenal, kidney, thymus, spleen, heart, lung, liver, testis and brain. The absolute organ weights were measured and the organs-to-body weight ratios were calculated. Blood samples for hematological evaluation were collected from vein of animals under ether anesthesia. Food was withheld overnight before necropsy and blood collections. EDTA was used as an anticoagulant for hematology samples. White blood cell (WBC), red blood cell (RBC), hemoglobin concentration (HGB), hematocrit (HCT), mean corpuscular volume (MCV), mean corpuscular hemoglobin (MCH), mean corpuscular hemoglobin concentration (MCHC), cell hemoglobin concentration mean (CHCM), cell hemoglobin (CH), red cell distribution width (RDW), hemoglobin distribution width (HDW), platelet count (PLT), mean platelet volume (MPV) and reticulocyte were measured by a hematological autoanalyzer (ADVIA 120, Bayer, USA). To get the serum for biochemical analyses, blood samples in a separation tube were centrifuged at 4,000 rpm for 10 min on the day of necropsy. The serum was kept frozen at -70°C until analysis. Sodium citrate was used as an anticoagulant for biochemical analyses. Serum biochemical parameters including aspartate aminotransferase (AST), alanine aminotransferase (ALT), alkaline phosphatase (ALP), total bilirubin (T-Bil), albumin, total protein (TP), albumin/globulin ratio (A/G ratio), glucose, total cholesterol (CHO), triglyceride (TG), lactate dehydrogenase (LDH), creatine kinase (CK), blood urea nitrogen (BUN), creatinine (CRE), blood urea nitrogen/creatinine ratio (B/C ratio), Na^+, K^+ and Cl^- were evaluated by an autoanalyzer (Shimadzu CL-7200, Shimadzu Co., Japan).
# All data for single and 2-week repeated oral dose toxicity studies were expressed as the mean ± SD Difference between control and treated groups were evaluated with one-way analysis of variance (ANOVA) followed by Dunnett's test. Value P<0.05 was taken as being statistically significant. Statistical analyses were performed using GraphPad Prism software (USA).
smiles,measurement,setting,value
"COc1ccc2cc(C=Cc3ccc(N(C)C)cc3)oc2c1 [KMS88009, 6-methoxy-2-(4-dimethylaminostyryl) benzofuran]",no-observed-adverse-effect-level,"SD rats, 2-week repeated oral administration","over 1,000 mg/kg"
same,Abnormal gross findings of necropsy (changed animals / total),rats PO 100 mg/kg/day,0 / 5
same,Basophils,rats PO 100 mg/kg/day,0.02 ± 0.01 x10^3/μL
same,Body Weight (at necropsy),rats PO 100 mg/kg/day,316.188 ± 16.093 g
same,Brain weight,rats PO 100 mg/kg/day,1.948 ± 0.032 g
same,CH,rats PO 100 mg/kg/day,20.3 ± 0.4 pg
same,CHCM,rats PO 100 mg/kg/day,34.0 ± 0.4 g/dL
same,Eosinophils,rats PO 100 mg/kg/day,0.07 ± 0.08 x10^3/μL
same,HDW,rats PO 100 mg/kg/day,2.22 ± 0.08 g/dL
same,Heart weight,rats PO 100 mg/kg/day,1.067 ± 0.098 g
same,Hematocrit,rats PO 100 mg/kg/day,43.2 ± 2.6%
same,Hemoglobin,rats PO 100 mg/kg/day,14.3 ± 1.0 g/dL
same,LUC,rats PO 100 mg/kg/day,0.03 ± 0.02 x10^3/μL
same,Left adrenal weight,rats PO 100 mg/kg/day,0.027 ± 0.005 g
same,Left kidney weight,rats PO 100 mg/kg/day,1.279 ± 0.083 g
same,Left testis weight,rats PO 100 mg/kg/day,1.440 ± 0.114 g
same,Liver weight,rats PO 100 mg/kg/day,10.988 ± 0.881 g
same,Lung weight,rats PO 100 mg/kg/day,1.212 ± 0.077 g
same,Lympocytes,rats PO 100 mg/kg/day,6.64 ± 1.79 x10^3/μL
same,MCH,rats PO 100 mg/kg/day,19.8 ± 0.5 pg
same,MCHC,rats PO 100 mg/kg/day,33.1 ± 0.5 g/dL
same,MCV,rats PO 100 mg/kg/day,59.7 ± 1.3 fL
same,MPV,rats PO 100 mg/kg/day,7.66 ± 0.2 fL
same,Monocytes,rats PO 100 mg/kg/day,0.12 ± 0.03 x10^3/μL
same,Mortality (dead animals / total number of animals),rats PO 100 mg/kg/day,0 / 5
same,Neutrophils,rats PO 100 mg/kg/day,1.74 ± 0.68 x10^3/μL
same,Platelet,rats PO 100 mg/kg/day,1283 ± 239 x10^3/μL
same,RBC,rats PO 100 mg/kg/day,7.25 ± 0.46 x10^6/μL
same,RDW,rats PO 100 mg/kg/day,12.0 ± 0.3%
same,Rate body weight / brain,rats PO 100 mg/kg/day,0.617 ± 0.026%
same,Rate body weight / heart,rats PO 100 mg/kg/day,0.337 ± 0.024%
same,Rate body weight / left adrenal,rats PO 100 mg/kg/day,0.009 ± 0.002%
same,Rate body weight / left kidney,rats PO 100 mg/kg/day,0.404 ± 0.009%
same,Rate body weight / left testis,rats PO 100 mg/kg/day,0.456 ± 0.036%
same,Rate body weight / liver,rats PO 100 mg/kg/day,3.473 ± 0.154%
same,Rate body weight / lung,rats PO 100 mg/kg/day,0.384 ± 0.031%
same,Rate body weight / right adrenal,rats PO 100 mg/kg/day,0.008 ± 0.001%
same,Rate body weight / right kidney,rats PO 100 mg/kg/day,0.414 ± 0.026%
same,Rate body weight / right testis,rats PO 100 mg/kg/day,0.459 ± 0.042%
same,Rate body weight / spleen,rats PO 100 mg/kg/day,0.230 ± 0.048%
same,Rate body weight / thymus,rats PO 100 mg/kg/day,0.205 ± 0.022%
same,Retic,rats PO 100 mg/kg/day,324.8 ± 18.9 ^* x10^3/μL
same,Right adrenal weight,rats PO 100 mg/kg/day,0.025 ± 0.002 g
same,Right kidney weight,rats PO 100 mg/kg/day,1.310 ± 0.101 g
same,Right testis weight,rats PO 100 mg/kg/day,1.450 ± 0.133 g
same,Spleen weight,rats PO 100 mg/kg/day,0.731 ± 0.188 g
same,Symptomatic signs,rats PO 100 mg/kg/day,-
same,Thymus weight,rats PO 100 mg/kg/day,0.649 ± 0.073 g
same,WBC,rats PO 100 mg/kg/day,8.62 ± 1.70 x10^3/μL
same,Body weight,"rats PO 100 mg/kg/day, day 1",227.6 ± 7.8 g
same,Body weight,"rats PO 100 mg/kg/day, day 4",253.1 ± 7.0 g
same,Body weight,"rats PO 100 mg/kg/day, day 8",297.2 ± 9.3 g
same,Body weight,"rats PO 100 mg/kg/day, day 11",321.2 ± 13.1 g
same,Body weight,"rats PO 100 mg/kg/day, day 14",344.4 ± 17.1 g
same,Abnormal gross findings of necropsy (changed animals / total),rats PO 300 mg/kg/day,0 / 5
same,Basophils,rats PO 300 mg/kg/day,0.01 ± 0.01 x10^3/μL
same,Body Weight (at necropsy),rats PO 300 mg/kg/day,312.382 ± 14.169 g
same,Brain weight,rats PO 300 mg/kg/day,1.680 ± 0.211 g
same,CH,rats PO 300 mg/kg/day,20.4 ± 0.7 pg
same,CHCM,rats PO 300 mg/kg/day,34.2 ± 0.3 g/dL
same,Eosinophils,rats PO 300 mg/kg/day,0.03 ± 0.01 x10^3/μL
same,HDW,rats PO 300 mg/kg/day,2.28 ± 0.12 g/dL
same,Heart weight,rats PO 300 mg/kg/day,1.002 ± 0.038 g
same,Hematocrit,rats PO 300 mg/kg/day,41.4 ± 1.9%
same,Hemoglobin,rats PO 300 mg/kg/day,13.9 ± 0.7 g/dL
same,LUC,rats PO 300 mg/kg/day,0.02 ± 0.01 x10^3/μL
same,Left adrenal weight,rats PO 300 mg/kg/day,0.026 ± 0.004 g
same,Left kidney weight,rats PO 300 mg/kg/day,1.237 ± 0.082 g
same,Left testis weight,rats PO 300 mg/kg/day,1.515 ± 0.189 g
same,Liver weight,rats PO 300 mg/kg/day,10.601 ± 0.687 g
same,Lung weight,rats PO 300 mg/kg/day,1.214 ± 0.128 g
same,Lympocytes,rats PO 300 mg/kg/day,3.98 ± 0.96 x10^3/μL
same,MCH,rats PO 300 mg/kg/day,20.0 ± 0.6 pg
same,MCHC,rats PO 300 mg/kg/day,33.4 ± 0.4 g/dL
same,MCV,rats PO 300 mg/kg/day,59.7 ± 1.5 fL
same,MPV,rats PO 300 mg/kg/day,7.84 ± 0.4 fL
same,Monocytes,rats PO 300 mg/kg/day,0.08 ± 0.02 x10^3/μL
same,Mortality (dead animals / total number of animals),rats PO 300 mg/kg/day,0 / 5
same,Neutrophils,rats PO 300 mg/kg/day,0.84 ± 0.21 x10^3/μL
same,Platelet,rats PO 300 mg/kg/day,1309 ± 50 x10^3/μL
same,RBC,rats PO 300 mg/kg/day,6.93 ± 0.26 x10^6/μL
same,RDW,rats PO 300 mg/kg/day,11.9 ± 0.4%
same,Rate body weight / brain,rats PO 300 mg/kg/day,0.537 ± 0.059%
same,Rate body weight / heart,rats PO 300 mg/kg/day,0.321 ± 0.011%
same,Rate body weight / left adrenal,rats PO 300 mg/kg/day,0.008 ± 0.001%
same,Rate body weight / left kidney,rats PO 300 mg/kg/day,0.396 ± 0.020%
same,Rate body weight / left testis,rats PO 300 mg/kg/day,0.487 ± 0.075%
same,Rate body weight / liver,rats PO 300 mg/kg/day,3.393 ± 0.133%
same,Rate body weight / lung,rats PO 300 mg/kg/day,0.389 ± 0.037%
same,Rate body weight / right adrenal,rats PO 300 mg/kg/day,0.008 ± 0.001%
same,Rate body weight / right kidney,rats PO 300 mg/kg/day,0.406 ± 0.008%
same,Rate body weight / right testis,rats PO 300 mg/kg/day,0.455 ± 0.023%
same,Rate body weight / spleen,rats PO 300 mg/kg/day,0.201 ± 0.037%
same,Rate body weight / thymus,rats PO 300 mg/kg/day,0.196 ± 0.036%
same,Retic,rats PO 300 mg/kg/day,277.8 ± 39.6 x10^3/μL
same,Right adrenal weight,rats PO 300 mg/kg/day,0.025 ± 0.004 g
same,Right kidney weight,rats PO 300 mg/kg/day,1.266 ± 0.035 g
same,Right testis weight,rats PO 300 mg/kg/day,1.420 ± 0.086 g
same,Spleen weight,rats PO 300 mg/kg/day,0.629 ± 0.130 g
same,Symptomatic signs,rats PO 300 mg/kg/day,-
same,Thymus weight,rats PO 300 mg/kg/day,0.613 ± 0.115 g
same,WBC,rats PO 300 mg/kg/day,4.95 ± 1.05 x10^3/μL
same,Body weight,"rats PO 300 mg/kg/day, day 1",227.8 ± 7.1 g
same,Body weight,"rats PO 300 mg/kg/day, day 4",250.5 ± 9.9 g
same,Body weight,"rats PO 300 mg/kg/day, day 8",294.2 ± 14.6 g
